The values below come from publication PMC5628579, “Potent mechanism-based sirtuin-2-selective inhibition by an in situ-generated occupant of the substrate-binding site, “selectivity pocket” and NAD^+-binding site” (Chemical Science, 2017).

The target of one test is T1, SIRT2 (Homo sapiens, UniProt Q8IXJ6).
T1 sequence (Q8IXJ6 1-389): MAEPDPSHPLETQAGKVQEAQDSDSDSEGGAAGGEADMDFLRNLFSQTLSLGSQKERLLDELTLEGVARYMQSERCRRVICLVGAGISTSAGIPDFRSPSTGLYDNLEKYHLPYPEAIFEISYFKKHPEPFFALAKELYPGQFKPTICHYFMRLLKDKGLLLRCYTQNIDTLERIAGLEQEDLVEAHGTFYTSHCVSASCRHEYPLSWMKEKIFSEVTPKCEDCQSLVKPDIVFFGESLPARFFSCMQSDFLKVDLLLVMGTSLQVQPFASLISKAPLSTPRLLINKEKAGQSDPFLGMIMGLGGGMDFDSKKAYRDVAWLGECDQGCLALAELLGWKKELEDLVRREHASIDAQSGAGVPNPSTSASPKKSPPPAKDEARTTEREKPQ
Kind of test: Fluor de Lys SIRT2 assay. As to conditions: for inhibition at 10 µM: read-out: % inhibition at 10 μM SIRT2; for inhibition at 1 µM: read-out: % inhibition at 1 μM SIRT2.

The target in the next test is T2, SIRT3 (Homo sapiens, UniProt Q9NTG7).
T2 sequence (Q9NTG7 1-399): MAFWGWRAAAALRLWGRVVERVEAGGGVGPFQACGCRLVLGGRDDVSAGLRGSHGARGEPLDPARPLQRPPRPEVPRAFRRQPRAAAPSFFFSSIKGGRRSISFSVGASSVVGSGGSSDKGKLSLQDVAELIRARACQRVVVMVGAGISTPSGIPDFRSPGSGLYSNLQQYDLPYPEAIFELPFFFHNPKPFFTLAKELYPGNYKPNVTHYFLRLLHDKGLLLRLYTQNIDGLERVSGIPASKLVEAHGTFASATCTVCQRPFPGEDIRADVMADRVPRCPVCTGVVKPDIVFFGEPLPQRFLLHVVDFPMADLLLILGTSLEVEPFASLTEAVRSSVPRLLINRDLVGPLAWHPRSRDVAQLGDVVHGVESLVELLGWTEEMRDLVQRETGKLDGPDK
Kind of test: Fluor de Lys SIRT3 assay. As to conditions: for inhibition at 10 µM: read-out: % inhibition at 10 μM SIRT3; for inhibition at 50 µM: read-out: % inhibition at 50 μM SIRT3.

A further test deals with T3, SIRT1 (Homo sapiens, UniProt Q96EB6).
T3 sequence (Q96EB6 1-747): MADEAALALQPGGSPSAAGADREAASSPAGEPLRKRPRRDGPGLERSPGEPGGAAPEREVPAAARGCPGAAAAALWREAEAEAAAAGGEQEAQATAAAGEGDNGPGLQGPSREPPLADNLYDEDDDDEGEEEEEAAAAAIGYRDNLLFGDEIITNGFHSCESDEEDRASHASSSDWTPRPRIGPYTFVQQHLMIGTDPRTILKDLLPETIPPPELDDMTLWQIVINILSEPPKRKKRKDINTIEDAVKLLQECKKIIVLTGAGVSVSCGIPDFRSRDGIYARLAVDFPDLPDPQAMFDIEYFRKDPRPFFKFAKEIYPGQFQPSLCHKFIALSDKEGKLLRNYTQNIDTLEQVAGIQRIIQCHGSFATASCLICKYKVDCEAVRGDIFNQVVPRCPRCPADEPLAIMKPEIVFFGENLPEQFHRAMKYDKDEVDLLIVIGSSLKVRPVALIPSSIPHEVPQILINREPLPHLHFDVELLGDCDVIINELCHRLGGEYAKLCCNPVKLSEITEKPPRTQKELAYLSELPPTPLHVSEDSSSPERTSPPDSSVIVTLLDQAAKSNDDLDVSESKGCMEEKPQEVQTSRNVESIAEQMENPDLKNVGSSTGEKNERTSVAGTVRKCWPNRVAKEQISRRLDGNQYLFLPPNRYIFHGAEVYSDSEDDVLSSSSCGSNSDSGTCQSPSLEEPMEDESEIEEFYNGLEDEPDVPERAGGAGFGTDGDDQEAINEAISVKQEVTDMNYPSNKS
Kind of test: Fluor de Lys SIRT1 assay. The following applies: for inhibition at 10 µM: read-out: % inhibition at 10 μM SIRT1; for inhibition at 50 µM: read-out: % inhibition at 50 μM SIRT1.

The target in another test is T4, SIRT5 (Homo sapiens, UniProt Q9NXA8).
T4 sequence (Q9NXA8 37-310): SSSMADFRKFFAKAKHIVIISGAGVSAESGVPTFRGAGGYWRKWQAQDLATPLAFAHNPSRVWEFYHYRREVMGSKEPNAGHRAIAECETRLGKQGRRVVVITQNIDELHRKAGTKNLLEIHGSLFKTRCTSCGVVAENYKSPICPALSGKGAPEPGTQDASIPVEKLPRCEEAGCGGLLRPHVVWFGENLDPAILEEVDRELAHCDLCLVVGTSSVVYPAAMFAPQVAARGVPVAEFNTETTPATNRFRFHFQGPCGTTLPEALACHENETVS
Kind of test: Fluor de Lys SIRT5 assay. As to conditions: for inhibition at 10 µM: read-out: % inhibition at 10 μM SIRT5; for inhibition at 50 µM: read-out: % inhibition at 50 μM SIRT5.

The next test deals with MDA-MB-231 cells. Nature of the test: Cell growth assay (AlamarBlue), MDA-MB-231. Type of test: cell-based, human. The following applies: Homo sapiens, MDA-MB-231, 72 h, 72 h of treatment. In general terms: Alamar Blue is a resazurin reagent that responds to reducing activity.

Where a SMILES comes first, the peptide text is derived from it. Side-chain parts run from the residue outwards. The star is where a group is joined. Cbz = O=C(OCc1ccccc1)*; Bz = O=C(c1ccccc1)* Where only a bound is given, the exact number is not on record here.

Usually IC50 stands for the concentration that gives 50% inhibition. A lower IC50 goes with inhibition by little substance. As usually defined, the inhibition is the change of the read-out against control, counted positive when it falls. By GI50 is commonly meant the concentration that inhibits growth by half. Lower therefore signals more potent growth inhibition.

`CCCCCNC(=O)CNC(=O)c1ccccc1Nc1cccc(OCCc2ccccc2)c1` [Compound 19] gave an IC50 at SIRT2 of 6.71 ± 0.42 µM. In addition, the inhibition at 10 µM came to 69 ± 2.2% at SIRT2, 3 ± 3.2% on SIRT3, 4.5 ± 3.4% at SIRT1 and 6 ± 3.2% at SIRT5. Besides, the inhibition at 50 µM on SIRT3 came to 2%; at SIRT1, 4%; on SIRT5, 6%.

With `C[C@H](NC(=O)[C@H](CCCCNC(=O)CNC(=O)c1ccccc1Nc1cccc(OCCc2ccccc2)c1)NC(=O)OCc1ccccc1)C(N)=O` [Compound 26], it took 0.37 ± 0.03 µM to reach half-maximal inhibition at SIRT2 (IC50). Also, the inhibition at 1 µM on SIRT2 worked out at 74 ± 2%. The inhibition at 10 µM on SIRT2 was 99 ± 0.15%; on SIRT3, 14 ± 4.9%; at SIRT1, 16 ± 0.1%; on SIRT5, 0%. Besides, the inhibition at 50 µM is 56% at SIRT3, 25% at SIRT1 and 6% at SIRT5. Also, in the test on MDA-MB-231 cells, the GI50 turned out to be 10.8 µM.

For `NC(=O)C1CCCc2c1[nH]c1ccc(Cl)cc21` (centres unmarked) [Compound 9, EX-527, reference compound], the inhibition at 10 µM at SIRT2 came to 79 ± 1.3%; at SIRT1, 97 ± 0.13%; at SIRT5, 0%. Further, on SIRT5, the inhibition at 50 µM amounted to 0%. The GI50 in the test on MDA-MB-231 cells is greater than 30 µM.

On to `C[C@H](NC(=O)[C@H](CCCCNC(=O)CNC(=O)c1ccccc1)NC(=O)OCc1ccccc1)C(N)=O` [Compound 28] (Cbz-Lys([Gly-Bz])-Ala-NH2), for which, on SIRT2, the “SIRT2 inhibition (in words)” value is listed as “no SIRT2 inhibition”. Moreover, the inhibition at 10 µM at SIRT2 stood at 8 ± 3.3%; at SIRT3, 1 ± 1.8%; at SIRT1 it was 3.5 ± 1%; on SIRT5 it was 0%. Moreover, the inhibition at 50 µM on SIRT2 (read-out: % inhibition at 50 μM SIRT2) was 18%; at SIRT3, 0%; on SIRT1, 1%; on SIRT5, 0%.

As to `N#C/C(=C\c1ccc(-c2cc(Cl)ccc2Cl)o1)C(=O)Nc1cccc2ncccc12` [Compound 7, AGK2, reference compound], the inhibition at 10 µM at SIRT2 is 45 ± 2.9%; at SIRT1, 0.9 ± 0.62%; on SIRT5, 0%. Further, the results for the inhibition at 50 µM on SIRT1 and at SIRT5 were 14% and 3%, respectively.

At SIRT2, `CCCNC(=S)CNC(=O)c1ccccc1Nc1cccc(OCCc2ccccc2)c1` [Compound 41] gave an IC50 of 8.47 ± 0.3 µM. The inhibition at 10 µM at SIRT2 turned out to be 54 ± 1.5%; on SIRT3, 0%; at SIRT1, 0%; on SIRT5, 1 ± 2.2%. For the same compound, the inhibition at 50 µM worked out at 0% at SIRT3, 10% at SIRT1 and 3% on SIRT5.

Take `C[C@H](NC(=O)[C@H](CCCCNC(=O)CNC(=O)c1ccccc1Nc1ccccc1)NC(=O)OCc1ccccc1)C(N)=O` [Compound 27]: the IC50 against SIRT2 stood at 1.84 ± 0.21 µM. The inhibition at 10 µM on SIRT2 was 80 ± 0.12%; at SIRT3 it was 9 ± 2.2%; at SIRT1, 24 ± 2.1%; on SIRT5, 0%. On SIRT2 (removal of the phenoxyethyl fragment, relative to 26), the “reduction of the SIRT2 inhibitory activity” value is roughly 20%. For the same compound, the inhibition at 50 µM at SIRT3 was determined as 16%; on SIRT1, 68%; at SIRT5 it was 3%.

`CN(C)CCCCC(=O)Nc1ccc(NC(=S)NC(=O)c2ccc(C(C)(C)C)cc2)cc1` [Compound 3, tenovin-6, reference compound]: the inhibition at 10 µM at SIRT2 is 45 ± 2.5%; at SIRT3, 0%; on SIRT1, 0.9 ± 0.17%; on SIRT5, 0%. For the same compound, the figures for the inhibition at 50 µM at SIRT3, at SIRT1 and at SIRT5 were 9%, 64% and 2%, respectively.

On SIRT2, `CCCNC(=O)CNC(=O)c1ccccc1Nc1cccc(OCCc2ccccc2)c1` [Compound 18] had an IC50 of 4.04 ± 0.65 µM. The inhibition at 10 µM at SIRT2 amounted to 81 ± 0.43%; on SIRT3 it was 0%; on SIRT1 it was 2 ± 1%; on SIRT5, 0%. Moreover, the inhibition at 50 µM amounted to 3% at SIRT3, 12% on SIRT1 and 3% at SIRT5.

Regarding `CC(=S)NCCCC[C@H](NC(=O)OCc1ccccc1)C(=O)N[C@@H](C)C(N)=O` [UKU 10363, reference compound], the half-inhibitory concentration (IC50) is 0.59 ± 0.13 µM against SIRT2, 4.39 ± 0.28 µM against SIRT3 and 0.18 ± 0.013 µM against SIRT1. The inhibition at 1 µM on SIRT2 came to 56 ± 1.9%; on SIRT3 (read-out: % inhibition at 1 μM SIRT3), 19 ± 0.78%; at SIRT1 (read-out: % inhibition at 1 μM SIRT1), 83 ± 0.4%. For the same compound, the inhibition at 10 µM at SIRT2 turned out to be 99 ± 3.2%; at SIRT3, 65 ± 0.23%; at SIRT1, 97 ± 0.04%; on SIRT5 it was 3 ± 3.9%. Moreover, at SIRT5, the inhibition at 50 µM is 6%.

On to `NC(=O)CNC(=O)c1ccccc1Nc1cccc(OCCc2ccccc2)c1` [Compound 17], for which, at SIRT2, the IC50 worked out at 3.6 ± 0.03 µM, the inhibition at 1 µM came out at 19 ± 0.63% and the inhibition at 10 µM is 85 ± 0.47%. Moreover, at SIRT3, the inhibition at 10 µM was found to be 10 ± 0.95% and the inhibition at 50 µM is 13%. In addition, at SIRT1, the inhibition at 10 µM stood at 10 ± 1.9% and the inhibition at 50 µM was 18%. On SIRT5, the inhibition at 10 µM worked out at 0% and the inhibition at 50 µM was found to be 4%.

On to `O=C(Nc1cccc([N+](=O)[O-])c1)c1cccc(S(=O)(=O)N2CCCCCC2)c1` [Compound 8, AK-1, reference compound], for which the inhibition at 10 µM on SIRT2 stood at 31 ± 0.42%; at SIRT3, 0%; on SIRT1, 6.2 ± 0.85%; on SIRT5, 0%. The inhibition at 50 µM at SIRT3 came out at 0%; at SIRT1 it was 25%; at SIRT5, 0%.

Take `CCCCCNC(=S)CNC(=O)c1ccccc1Nc1cccc(OCCc2ccccc2)c1` [Compound 42]: the IC50 against SIRT2 stood at 19.3 ± 3.1 µM. Further, the inhibition at 10 µM on SIRT2 came to 40 ± 3.4%; at SIRT3, 0%; on SIRT1 it was 0%; at SIRT5 it was 0%. Besides, the inhibition at 50 µM on SIRT3 turned out to be 2%; at SIRT1, 11%; at SIRT5, 3%.
